ChEMBL document CHEMBL3045059, “Efficacy of ketoenols on insecticide resistant field populations of two-spotted spider mite Tetranychus urticae and sweet potato whitefly Bemisia tabaci from Greece” (2012)
Converted amounts (≈) assume the structure as drawn.

How the values were obtained:
Assay type in all cases: functional
Tetranychus urticae [1] = experiment: Acaricidal activity against larvae of Tetranychus urticae (two-spotted spider mite) field population TU2 in bean leaves assessed as mortality applied at 1 bar pressure measured after 6 days
Tetranychus urticae [2] = experiment: Acaricidal activity against larvae of Tetranychus urticae (two-spotted spider mite) mixed strain ALL-14 selected with spirodiclofen for 14 generations in bean leaves assessed as mortality by applying constant selection pressure under laboratory conditions
Tetranychus urticae [3] = experiment: Acaricidal activity against larvae of Tetranychus urticae (two-spotted spider mite) field population TU4 in bean leaves assessed as mortality applied at 1 bar pressure measured after 6 days
Tetranychus urticae [4] = experiment: Acaricidal activity against larvae of Tetranychus urticae (two-spotted spider mite) laboratory strain GSS in bean leaves assessed as mortality applied at 1 bar pressure measured after 6 days
Tetranychus urticae [5] = experiment: Resistance ratio, ratio of LC50 for larvae of Tetranychus urticae (two-spotted spider mite) greenhouse population TU7 to LC50 for larvae of Tetranychus urticae laboratory strain SAMB measured after 6 days
Tetranychus urticae [6] = experiment: Resistance ratio, ratio of LC50 for larvae of Tetranychus urticae (two-spotted spider mite) laboratory strain GSS to LC50 for larvae of Tetranychus urticae laboratory strain SAMB measured after 6 days
Tetranychus urticae [7] = experiment: Resistance ratio, ratio of LC50 for larvae of Tetranychus urticae (two-spotted spider mite) greenhouse population TU5 to LC50 for larvae of Tetranychus urticae laboratory strain SAMB measured after 6 days
Tetranychus urticae [8] = experiment: Acaricidal activity against larvae of Tetranychus urticae (two-spotted spider mite) field population TU6 in bean leaves assessed as mortality applied at 1 bar pressure measured after 6 days
Tetranychus urticae [9] = experiment: Acaricidal activity against larvae of Tetranychus urticae (two-spotted spider mite) field population TU12 in bean leaves assessed as mortality applied at 1 bar pressure measured after 6 days
Tetranychus urticae [10] = experiment: Acaricidal activity against larvae of Tetranychus urticae (two-spotted spider mite) laboratory strain SAMB in bean leaves assessed as mortality applied at 1 bar pressure measured after 6 days
Tetranychus urticae [11] = experiment: Resistance ratio, ratio of LC50 for larvae of Tetranychus urticae (two-spotted spider mite) greenhouse population TU11 to LC50 for larvae of Tetranychus urticae laboratory strain SAMB measured after 6 days
Tetranychus urticae [12] = experiment: Acaricidal activity against larvae of Tetranychus urticae (two-spotted spider mite) greenhouse population TU9 in bean leaves assessed as mortality applied at 1 bar pressure measured after 6 days
Tetranychus urticae [13] = experiment: Resistance ratio, ratio of LC50 for larvae of Tetranychus urticae (two-spotted spider mite) mixed strain ALL-14 selected with spirodiclofen for 14 generations to LC50 for larvae of Tetranychus urticae (two-spotted spider mite) laboratory strain SAMB measured after 6 days
Tetranychus urticae [14] = experiment: Acaricidal activity against larvae of Tetranychus urticae (two-spotted spider mite) greenhouse population TU3 in bean leaves assessed as mortality applied at 1 bar pressure measured after 6 days
Tetranychus urticae [15] = experiment: Resistance ratio, ratio of LC50 for larvae of Tetranychus urticae (two-spotted spider mite) greenhouse population TU3 to LC50 for larvae of Tetranychus urticae laboratory strain SAMB measured after 6 days
Tetranychus urticae [16] = experiment: Acaricidal activity against larvae of Tetranychus urticae (two-spotted spider mite) greenhouse population TU7 in bean leaves assessed as mortality applied at 1 bar pressure measured after 6 days
Tetranychus urticae [17] = experiment: Resistance ratio, ratio of LC50 for larvae of Tetranychus urticae (two-spotted spider mite) field population TU4 to LC50 for larvae of Tetranychus urticae laboratory strain SAMB measured after 6 days
Tetranychus urticae [18] = experiment: Acaricidal activity against larvae of Tetranychus urticae (two-spotted spider mite) greenhouse population TU11 in bean leaves assessed as mortality applied at 1 bar pressure measured after 6 days
Tetranychus urticae [19] = experiment: Acaricidal activity against larvae of Tetranychus urticae (two-spotted spider mite) greenhouse population TU1 in bean leaves assessed as mortality applied at 1 bar pressure measured after 6 days
Tetranychus urticae [20] = experiment: Resistance ratio, ratio of LC50 for larvae of Tetranychus urticae (two-spotted spider mite) field population TU2 to LC50 for larvae of Tetranychus urticae laboratory strain SAMB measured after 6 days
Tetranychus urticae [21] = experiment: Resistance ratio, ratio of LC50 for larvae of Tetranychus urticae (two-spotted spider mite) field population TU12 to LC50 for larvae of Tetranychus urticae laboratory strain SAMB measured after 6 days
Tetranychus urticae [22] = experiment: Resistance ratio, ratio of LC50 for larvae of Tetranychus urticae (two-spotted spider mite) greenhouse population TU9 to LC50 for larvae of Tetranychus urticae laboratory strain SAMB measured after 6 days
Tetranychus urticae [23] = experiment: Resistance ratio, ratio of LC50 for larvae of Tetranychus urticae (two-spotted spider mite) field population TU6 to LC50 for larvae of Tetranychus urticae laboratory strain SAMB measured after 6 days
Tetranychus urticae [24] = experiment: Acaricidal activity against larvae of Tetranychus urticae (two-spotted spider mite) greenhouse population TU5 in bean leaves assessed as mortality applied at 1 bar pressure measured after 6 days
Tetranychus urticae [25] = experiment: Resistance ratio, ratio of LC50 for larvae of Tetranychus urticae (two-spotted spider mite) greenhouse population TU1 to LC50 for larvae of Tetranychus urticae laboratory strain SAMB measured after 6 days

Compound: CCC(C)(C)C(=O)OC1=C(c2ccc(Cl)cc2Cl)C(=O)OC12CCCCC2 [SPIRODICLOFEN]
- LC95 (Tetranychus urticae [1]): 18.6 µg/mL (≈ 45.2 µM)
- LC50 (Tetranychus urticae [1]; Tetranychus urticae, TU2, 144 h): 3.2 µg/mL (≈ 7.78 µM)
- LC95 (Tetranychus urticae [2]): 32.1 µg/mL (≈ 78 µM)
- LC50 (Tetranychus urticae [2]; Tetranychus urticae, mixed strain ALL-14): 9.5 µg/mL (≈ 23.1 µM)
- LC95 (Tetranychus urticae [3]): 8 µg/mL (≈ 19.4 µM)
- LC50 (Tetranychus urticae [3]; Tetranychus urticae, TU4, 144 h): 2.5 µg/mL (≈ 6.08 µM)
- LC95 (Tetranychus urticae [4]): 4 µg/mL (≈ 9.72 µM)
- LC50 (Tetranychus urticae [4]; Tetranychus urticae, GSS, 144 h): 1.4 µg/mL (≈ 3.4 µM)
- RatioLC50 (Tetranychus urticae [5]): 12
- RatioLC50 (Tetranychus urticae [6]): 0.6
- RatioLC50 (Tetranychus urticae [7]): 1.1
- LC95 (Tetranychus urticae [8]): 2.3 µg/mL (≈ 5.59 µM)
- LC50 (Tetranychus urticae [8]; Tetranychus urticae, TU6, 144 h): 0.5 µg/mL (≈ 1.22 µM)
- LC95 (Tetranychus urticae [9]): 23.8 µg/mL (≈ 57.9 µM)
- LC50 (Tetranychus urticae [9]; Tetranychus urticae, TU12, 144 h): 5.5 µg/mL (≈ 13.4 µM)
- LC95 (Tetranychus urticae [10]): 7.8 µg/mL (≈ 19 µM)
- LC50 (Tetranychus urticae [10]; Tetranychus urticae, SAMB, 144 h): 2.2 µg/mL (≈ 5.35 µM)
- RatioLC50 (Tetranychus urticae [11]): 3.9
- LC95 (Tetranychus urticae [12]): 43.4 µg/mL (≈ 106 µM)
- LC50 (Tetranychus urticae [12]; Tetranychus urticae, TU9, 144 h): 5 µg/mL (≈ 12.2 µM)
- RatioLC50 (Tetranychus urticae [13]): 4.3
- LC95 (Tetranychus urticae [14]): 5 µg/mL (≈ 12.2 µM)
- LC50 (Tetranychus urticae [14]; Tetranychus urticae, TU3, 144 h): 1.6 µg/mL (≈ 3.89 µM)
- RatioLC50 (Tetranychus urticae [15]): 0.7
- LC95 (Tetranychus urticae [16]): 87.7 µg/mL (≈ 213 µM)
- LC50 (Tetranychus urticae [16]; Tetranychus urticae, TU7, 144 h): 27 µg/mL (≈ 65.6 µM)
- RatioLC50 (Tetranychus urticae [17]): 1.1
- LC95 (Tetranychus urticae [18]): 46.1 µg/mL (≈ 112 µM)
- LC50 (Tetranychus urticae [18]; Tetranychus urticae, TU11, 144 h): 8.7 µg/mL (≈ 21.2 µM)
- LC95 (Tetranychus urticae [19]): 17.9 µg/mL (≈ 43.5 µM)
- LC50 (Tetranychus urticae [19]; Tetranychus urticae, TU1, 144 h): 2.7 µg/mL (≈ 6.56 µM)
- RatioLC50 (Tetranychus urticae [20]): 1.4
- RatioLC50 (Tetranychus urticae [21]): 2.5
- RatioLC50 (Tetranychus urticae [22]): 2.2
- RatioLC50 (Tetranychus urticae [23]): 0.2
- LC95 (Tetranychus urticae [24]): 4.6 µg/mL (≈ 11.2 µM)
- LC50 (Tetranychus urticae [24]; Tetranychus urticae, TU5, 144 h): 2.5 µg/mL (≈ 6.08 µM)
- RatioLC50 (Tetranychus urticae [25]): 1.2
